Patent US20070203066A1, “Compositions and methods for inhibiting cellular proliferation” (priority 2005, published 2007)
Non-standard residues stand in square brackets, D forms with d. Primed or numbered codes have the meaning given here. No end group written: not given here. Ida = iminodiacetic acid linker, its two carboxyls bind the Lys side-chain amines of two peptides, giving a homodimer; Ida(3) = iminodiacetic acid linker, Lys side-chain amines bound to its two carboxyl groups; Ida(4) = iminodiacetic acid linker (dimerization linker bound to lysine side chain); Cha = N[C@@H](CC1CCCCC1)C(=O)O

System: HUVECs
Type: cell-based
Conditions: HUVEC proliferation, bFGF at 10 ng/ml or VEGF at 5 ng/ml, 48 hours, BrdU incorporation; read-out: IC50 on HUVECs
Method: HUVECs were routinely cultured to near confluency in EGM media (Clontech, Mountain View, California). The cells were trypsinized and plated in a 96-well plate at 5,000 cells per well per 100 μl EBM supplemented with 2% FCS and antibiotics. The cells were allowed to adhere to the plate for at least 12 hours. Then, bFGF at 10 ng/ml or VEGF at 5 ng/ml, and various concentrations of peptide, were added to the wells. The cells were cultured for 48 hours at 37 ° C. in a 5% CO2 atmosphere. Cell proliferation was determined using a bromo-deoxyuridine (BrdU) incorporation method as described by the manufacturer. Inhibition of cell proliferation was assessed by BrdU incorporation.

Row | Substance | IC50 [µM]
1 | 51 (Ac-KTKRKRKKQRVKIAYEEIFVQNMK; also: homodimer via Ida linker on Lys24 side chain) [compound 51] | < 10
2 | TKRKRKKQRVKIAYEEIFVQNM [compound 19] | > 30
3 | KRKRKKQRVKIAYEEIFV [compound 61] | 10 to 30
4 | 482 (Ac-PRRRRQAVAIKF; not fully specified (residue 11); also: homodimer via Ida linker on Lys11 side chain) [compound 482] | < 10
5 | KTKRKRKKQRVKIAYEQNM [compound 40] | > 30
6 | 362 (Ac-ARRRRQRVA[Cha]YFK-NH2; not fully specified (residue 13); also: homodimer: Lys13 side chains joined by Ida (iminodiacetic acid) linker) [compound 362] | < 10
7 | 190 (Ac-RRRRRQRVHIIF; also: dimer: C-terminal Phe bound to an amino group of a Lys linker, 2 chains per Lys) [compound 190] | < 10
8 | 509 (Ac-ARRRRARVAIYFK; not fully specified (C-terminus); also: homodimer via Ida linker at Lys13 side chain) [compound 509] | < 10
9 | 189 (Ac-RRRRRQHVRIIF; also: dimer: C-terminal Phe bound to an amino group of a Lys linker, 2 chains per Lys) [compound 189] | < 10
10 | KTARKRKKQRVKIIFVQNM [compound 121] | < 10
11 | 453 (Ac-QRRRRQAVAIVFK-NH2; not fully specified (residue 13); also: homodimer via Ida linker at K13) [compound 453] | < 10
12 | 245 (Ac-RRRHRQRVHIIF; also: homodimer: C-termini of two chains bound to the two amines of a Lys linker) [compound 245] | 10 to 30
13 | 349 (Ac-ARRRRQRVAIYPK-NH2; not fully specified (residue 13); also: homodimer of residues 1-13 via Ida linker on Lys13 side chain) [compound 349] | > 30
14 | 437 (Ac-RRRRMQAVAIYFK(Ida(4)); not fully specified (C-terminus); also: homodimer via Ida linker at K13) [compound 437] | < 10
15 | 430 (Ac-ARRRRQAVAIK(Ida(4))YF; also: homodimer via Ida linker at K11) [compound 430] | < 10
16 | 184 (XRRRRQRVRIIF; Xaa = Acylated Histidine; Dimeric peptide wherein the C terminus of Phe in position 12 of one peptide chain is covalently bound to one of the amino groups of a Lysine linker and Phe of the remaining peptide chain is covalently bound to the other amino group of the Lysine linker.) [compound 184] | < 10
17 | RKKQRVKIAYEEIFVQNM [compound 23] | 10 to 30
18 | 414 (Ac-YRRRRQAVAIYFK; not fully specified (residue 13, C-terminus); also: homodimer via Ida linker on Lys side chains, linker at 13 via Ida, other end not in the chain) [compound 414] | < 10
19 | 403 (Ac-GRRRRQAVAIYFK(Ida(3))-NH2; also: homodimer via Ida linker on Lys13 side chain, Boc on Ida amine) [compound 403] | < 10
20 | KTKRKRKKQRVKIAYEEIFVKNM [compound 5] | < 10
21 | 212 (Ac-AARRRQRVAIIF; also: dimer: Phe C-termini joined via Lys linker) [compound 212] | > 30
22 | 320 (XRRRRQAVHIYFK; Xaa = Acylated Histidine; The side chain of Lysine at position 13 is covalently bound to an Ida linker forming a homodimer of residues 1 through 13.) [compound 320] | < 10
23 | RKKQRVKIAYEEIFVKNM [compound 11] | > 30
24 | 307 (Ac-RRRRRQAVRK(Ida)IFV; also: homodimer via Ida linker on Lys10 side chain) [compound 307] | < 10
25 | 318 (XRRRRQAVAIYFK; Xaa = Acylated Histidine; The side chain of Lysine at position 13 is covalently bound to an Ida linker forming a homodimer of residues 1 through 13.) [compound 318] | < 10

Row | Substance | IC50 [µM]
26 | KTKRKRKKQRVKIAYVQNM [compound 39] | 10 to 30
27 | 443 (Ac-RRRRWQAVAIYFK(Ida(4)); not fully specified (C-terminus); also: homodimer via Ida linker at K13) [compound 443] | < 10
28 | 393 (Ac-ARRRRQAVQIYFK; not fully specified (residue 13, C-terminus); also: homodimer of residues 1-13 via Ida linker at Lys13 side chain) [compound 393] | < 10
29 | 246 (Ac-RRRRHQHVRIIF; also: homodimer: C-termini of two chains bound to the two amines of a Lys linker) [compound 246] | < 10
30 | 304 (Ac-RRRRRQAVRIDIDFK(Ida)-NH2; also: homodimer via Ida linker on Lys15 side chain) [compound 304] | < 10
31 | RKKQQRVKIAYEEIFV [compound 78] | > 30
32 | 253 (Ac-ARRRRQRVAII[dF]K; not fully specified (C-terminus); also: homodimer: side chain of Lys13 bound to an Ida linker) [compound 253] | < 10
33 | 233 (XRRRRQHVRIIF; Xaa = Acylated Histidine; Dimeric peptide wherein the C terminus of Phe in position 12 of one peptide chain is covalently bound to one of the amino groups of a Lysine linker and Phe of the remaining peptide chain is covalently bound to the other amino group of the Lysine linker.) [compound 233] | < 10
34 | 300 (Ac-RRRRRQAVRIPIPFK-NH2; not fully specified (residue 15); also: homodimer: Lys15 side chain bound to Ida linker) [compound 300] | 10 to 30
35 | KTKRKRKKQRVKIAAEEIFVQNM [compound 49] | > 30
36 | 388 (Ac-ARRRRQAVFIYFK-NH2; not fully specified (residue 13); also: homodimer via Ida linker on Lys13 side chain, Ida amine Boc) [compound 388] | < 10
37 | 325 (Ac-RRRHRQHVRIYFK; not fully specified (residue 13, C-terminus); also: homodimer via Ida linker on Lys13 side chain) [compound 325] | < 10
38 | 336 (Ac-ARRRRQRVAIYFK-NH2; not fully specified (residue 13); also: homodimer via Lys13 side chain, Ida-PEG 20 kDa linker) [compound 336] | < 10
39 | KTKRKRKKQRVKIAYEEIM [compound 42] | > 30
40 | RKRKKQRVKIAYEEIFV [compound 62] | > 30
41 | 218 (Ac-RARRRQAVAIIF; also: dimer: Phe C-termini joined via Lys linker) [compound 218] | < 10
42 | 485 (Ac-ARRRPQAVAIKF; not fully specified (residue 11); also: homodimer: Lys11 side chain bound to Ida linker (Boc on Ida N)) [compound 485] | < 10
43 | KRKKQRVKIAYEEIF [compound 68] | > 30
44 | 395 (Ac-ARRRRQAVTIYFK; not fully specified (residue 13, C-terminus); also: homodimer of residues 1-13 via Ida linker at Lys13 side chain) [compound 395] | < 10
45 | 462 (Ac-ARRRRK(Ida(3))AVAIYF; also: homodimer via Ida linker on Lys side chains, linker at 6 via Ida, other end not in the chain) [compound 462] | 10 to 30
46 | 255 (Ac-ARRRRQRVA[dI]IFK-NH2; not fully specified (residue 13); also: homodimer via Ida linker on Lys13 side chains) [compound 255] | < 10
47 | 346 (Ac-ARRRRQRVAIYEK-NH2; not fully specified (residue 13); also: homodimer of residues 1-13 via Ida linker on Lys13 side chain) [compound 346] | > 30
48 | 287 (Ac-RRRRHQHVHIYFK-NH2; not fully specified (residue 13); also: homodimer via Ida linker on Lys13 side chain) [compound 287] | < 10
49 | 367 (Ac-ARRRRQRVAPYFK-NH2; not fully specified (residue 13); also: homodimer of residues 1-13 via Ida linker on K13 side chain) [compound 367] | > 30
50 | 179 (Ac-RRRRRQRVAIIF; also: dimer: C-terminus of Phe12 of each chain bound to one amino group of a Lys linker) [compound 179] | < 10
